According to ChEMBL document CHEMBL4808207, “Macrocyclic Peptides as a Novel Class of NNMT Inhibitors: A SAR Study Aimed at Inhibitory Activity in the Cell” (ACS Med Chem Lett, 2021):
Numbered stars: 1 amine (or outer) side, 2 acyl side, 3 side chain; on linkers, the order of the positions; unused ones are H or OH. Bridge positions count the residues as written; N and C are the ends. Square brackets hold non-standard residues; d marks the D form. Peptide text beside a SMILES is read from it. Pro(trans-4-Ph) = O=C(O)[C@@H]1C[C@@H](c2ccccc2)CN1; Pro(cis-4-CF3) = O=C(O)[C@@H]1C[C@H](C(F)(F)F)CN1; X1 = O=C([C@@H]1C[C@@H](C(F)(F)F)CN1[*:1])[*:2]; Phe(4-CONH2) = NC(=O)c1ccc(C[C@H](N)C(=O)O)cc1; Bip = N[C@@H](Cc1ccc(-c2ccccc2)cc1)C(=O)O; Pro(4,4-F2) = O=C(O)[C@@H]1CC(F)(F)CN1; Lys(Me2) = CN(C)CCCC[C@H](N)C(=O)O; NMeR = CN[C@@H](CCCNC(=N)N)C(=O)O; NMeF = CN[C@@H](Cc1ccccc1)C(=O)O; tBuAla = CC(C)(C)C[C@H](N)C(=O)O; Tic = O=C(O)[C@@H]1Cc2ccccc2CN1; hLys = NCCCCC[C@H](N)C(=O)O; NMeC = CN[C@@H](CS)C(=O)O

Biological target: T1, Nicotinamide N-methyltransferase (Mus musculus, UniProt O55239)
T1 sequence (O55239 whole entry): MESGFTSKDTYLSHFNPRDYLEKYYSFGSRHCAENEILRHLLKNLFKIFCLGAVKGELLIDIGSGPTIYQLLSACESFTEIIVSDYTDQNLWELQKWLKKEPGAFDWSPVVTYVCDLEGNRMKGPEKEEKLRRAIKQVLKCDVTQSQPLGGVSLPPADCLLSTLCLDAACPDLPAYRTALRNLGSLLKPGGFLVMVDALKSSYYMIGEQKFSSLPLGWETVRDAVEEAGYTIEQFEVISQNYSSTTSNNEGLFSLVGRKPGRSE
Assay: Inhibition of mouse recombinant NNMT using nicotinamide and SAM as substrate assessed as reduction in 1-methyl-nicotinamide formation incubated for 22 to 24 hrs by RapidFire Mass spectroscopy

Row | SMILES | IC50
1 | CN1C(=O)[C@H](Cc2ccc(O)cc2)NC(=O)[C@@H]2CCCN2C(=O)[C@H](Cc2ccccc2)NC(=O)CSC[C@@H](C(N)=O)NC(=O)[C@H](Cc2ccc(C(N)=O)cc2)NC(=O)[C@@H]2Cc3ccccc3CN2C(=O)[C@@H]2CCCN2C(=O)[C@@H]1CCCNC(=N)N ({CH2CO}-FPY[NMeR]P[Tic][Phe(4-CONH2)]C-NH2; thioether N-8) | 277 nM
2 | CC(C)C[C@@H]1NC(=O)[C@@H]2CCCN2C(=O)[C@H](Cc2ccccc2)N(C)C(=O)CSC[C@@H](C(N)=O)NC(=O)[C@H](Cc2ccc(C(N)=O)cc2)NC(=O)[C@@H]2Cc3ccccc3CN2C(=O)[C@@H]2CCCN2C(=O)[C@H](CCCNC(=N)N)NC1=O ({CH2CO}-[NMeF]PLRP[Tic][Phe(4-CONH2)]C-NH2; thioether N-8) | 96 nM
3 | CN1C(=O)CSC[C@@H](C(N)=O)NC(=O)[C@H](Cc2ccc(C(N)=O)cc2)NC(=O)[C@@H]2Cc3ccccc3CN2C(=O)[C@@H]2CCCN2C(=O)[C@H](CCCCN)NC(=O)[C@H](Cc2ccc(O)cc2)NC(=O)[C@@H]2CCCN2C(=O)[C@@H]1Cc1ccccc1 ({CH2CO}-[NMeF]PYKP[Tic][Phe(4-CONH2)]C-NH2; thioether N-8) | 188 nM
4 | CC(C)C[C@@H]1NC(=O)[C@@H]2CCCN2C(=O)[C@H](Cc2ccccc2)N(C)C(=O)CSC[C@@H](C(N)=O)NC(=O)[C@H](Cc2ccc(C(N)=O)cc2)NC(=O)[C@@H]2Cc3ccccc3CN2C(=O)[C@@H]2CCCN2C(=O)[C@H](CCCCCN)NC1=O ({CH2CO}-[NMeF]PL[hLys]P[Tic][Phe(4-CONH2)]C-NH2; thioether N-8) | 1.3 nM
5 | CN1C(=O)CSC[C@@H](C(N)=O)NC(=O)[C@H](Cc2ccc(C(N)=O)cc2)NC(=O)[C@@H]2Cc3ccccc3CN2C(=O)[C@@H]2CCCN2C(=O)[C@H](CCCCN)NC(=O)[C@H](CC(C)(C)C)NC(=O)[C@@H]2CCCN2C(=O)[C@@H]1Cc1ccccc1 ({CH2CO}-[NMeF]P[tBuAla]KP[Tic][Phe(4-CONH2)]C-NH2; thioether N-8) | 23 nM
6 | CN1C(=O)CSC[C@@H](C(N)=O)NC(=O)[C@H](Cc2ccc(C(N)=O)cc2)NC(=O)[C@@H]2Cc3ccccc3CN2C(=O)[C@@H]2CCCN2C(=O)[C@H](CCCNC(=N)N)NC(=O)[C@H](Cc2ccccc2)NC(=O)[C@@H]2CCCN2C(=O)[C@@H]1Cc1ccccc1 ({CH2CO}-[NMeF]PFRP[Tic][Phe(4-CONH2)]C-NH2; thioether N-8) | 253 nM
7 | CN1C(=O)CSC[C@@H](C(N)=O)NC(=O)[C@H](Cc2ccc(C(N)=O)cc2)NC(=O)[C@@H]2Cc3ccccc3CN2C(=O)[C@@H]2CCCN2C(=O)[C@H](CCCNC(=N)N)NC(=O)[C@H](Cc2ccc(O)cc2)NC(=O)[C@@H]2CCCN2C(=O)[C@@H]1Cc1ccccc1 ({CH2CO}-[NMeF]PYRP[Tic][Phe(4-CONH2)]C-NH2; thioether N-8) | 217 nM
8 | CC(C)C[C@@H]1NC(=O)[C@@H]2CCCN2C(=O)[C@H](Cc2ccccc2)NC(=O)CSC[C@@H](C(N)=O)NC(=O)[C@H](Cc2ccc(C(N)=O)cc2)NC(=O)[C@@H]2Cc3ccccc3CN2C(=O)[C@@H]2CC(F)(F)CN2C(=O)[C@H](CCCCN)NC1=O ({CH2CO}-FPLK[Pro(4,4-F2)][Tic][Phe(4-CONH2)]C-NH2; thioether N-8) | 13 nM
9 | CN(C)CCCC[C@@H]1NC(=O)[C@H](Cc2ccc(O)cc2)NC(=O)[C@@H]2CCCN2C(=O)[C@H](Cc2ccccc2)N(C)C(=O)CSC[C@@H](C(N)=O)NC(=O)[C@H](Cc2ccc(C(N)=O)cc2)NC(=O)[C@@H]2Cc3ccccc3CN2C(=O)[C@@H]2CCCN2C1=O ({CH2CO}-[NMeF]PY[Lys(Me2)]P[Tic][Phe(4-CONH2)]C-NH2; thioether N-8) | 1350 nM
10 | CC(C)C[C@@H]1NC(=O)[C@@H]2CCCN2C(=O)[C@H](Cc2ccccc2)NC(=O)CSC[C@@H](C(N)=O)NC(=O)[C@H](Cc2ccc(C(N)=O)cc2)NC(=O)[C@@H]2Cc3ccccc3CN2C(=O)[C@@H]2C[C@@H](C(F)(F)F)CN2C(=O)[C@H](CCCCN)NC1=O ({CH2CO}-FPLK[X1][Tic][Phe(4-CONH2)]C-NH2; thioether N-8) | 263 nM
11 | CC(C)C[C@@H]1NC(=O)[C@@H]2C[C@@H](c3ccccc3)CN2C(=O)[C@H](Cc2ccccc2)NC(=O)CSC[C@@H](C(N)=O)NC(=O)[C@H](Cc2ccc(C(N)=O)cc2)NC(=O)[C@@H]2Cc3ccccc3CN2C(=O)[C@@H]2CCCN2C(=O)[C@H](CCCCN)NC1=O ({CH2CO}-F[Pro(trans-4-Ph)]LKP[Tic][Phe(4-CONH2)]C-NH2; thioether N-8) | 1.2 nM
12 | CN1C(=O)[C@H](Cc2ccc(C(N)=O)cc2)NC(=O)[C@@H]2Cc3ccccc3CN2C(=O)[C@@H]2CCCN2C(=O)[C@H](CCCNC(=N)N)NC(=O)[C@H](Cc2ccc(O)cc2)NC(=O)[C@@H]2CCCN2C(=O)[C@H](Cc2ccccc2)NC(=O)CSC[C@H]1C(N)=O ({CH2CO}-FPYRP[Tic][Phe(4-CONH2)][NMeC]-NH2; thioether N-8) | 8030 nM
13 | CC(C)C[C@@H]1NC(=O)[C@@H]2C[C@@H](C(F)(F)F)CN2C(=O)[C@H](Cc2ccccc2)NC(=O)CSC[C@@H](C(N)=O)NC(=O)[C@H](Cc2ccc(C(N)=O)cc2)NC(=O)[C@@H]2Cc3ccccc3CN2C(=O)[C@@H]2CCCN2C(=O)[C@H](CCCCN)NC1=O ({CH2CO}-F[X1]LKP[Tic][Phe(4-CONH2)]C-NH2; thioether N-8) | 18 nM

Continued, values first:

Row | IC50 | SMILES
14 | 73 nM | CC(C)C[C@@H]1NC(=O)[C@@H]2CCCN2C(=O)[C@H](Cc2ccccc2)NC(=O)CSC[C@@H](C(N)=O)NC(=O)[C@H](Cc2ccc(-c3ccccc3)cc2)NC(=O)[C@@H]2Cc3ccccc3CN2C(=O)[C@@H]2CCCN2C(=O)[C@H](CCCCN)NC1=O ({CH2CO}-FPLKP[Tic][Bip]C-NH2; thioether N-8)
15 | 1340 nM | CC(C)C[C@@H]1NC(=O)[C@@H]2CCCN2C(=O)[C@H](Cc2ccccc2)NC(=O)CSC[C@@H](C(N)=O)NC(=O)[C@H](Cc2ccc(C(N)=O)cc2)NC(=O)[C@@H]2Cc3ccccc3CN2C(=O)[C@@H]2C[C@H](C(F)(F)F)CN2C(=O)[C@H](CCCCN)NC1=O ({CH2CO}-FPLK[Pro(cis-4-CF3)][Tic][Phe(4-CONH2)]C-NH2; thioether N-8)
16 | 18 nM | CC(C)C[C@@H]1NC(=O)[C@@H]2CC(F)(F)CN2C(=O)[C@H](Cc2ccccc2)NC(=O)CSC[C@@H](C(N)=O)NC(=O)[C@H](Cc2ccc(C(N)=O)cc2)NC(=O)[C@@H]2Cc3ccccc3CN2C(=O)[C@@H]2CCCN2C(=O)[C@H](CCCCN)NC1=O ({CH2CO}-F[Pro(4,4-F2)]LKP[Tic][Phe(4-CONH2)]C-NH2; thioether N-8)
17 | 40 nM | CC(C)C[C@@H]1NC(=O)[C@@H]2CCCN2C(=O)[C@H](Cc2ccccc2)NC(=O)CSC[C@@H](C(N)=O)NC(=O)[C@H](Cc2ccc(C(N)=O)cc2)NC(=O)[C@@H]2Cc3ccccc3CN2C(=O)[C@@H]2CCCN2C(=O)[C@H](CCCCN)NC1=O ({CH2CO}-FPLKP[Tic][Phe(4-CONH2)]C-NH2; thioether N-8)
18 | 214 nM | CC(C)C[C@@H]1NC(=O)[C@@H]2C[C@H](C(F)(F)F)CN2C(=O)[C@H](Cc2ccccc2)NC(=O)CSC[C@@H](C(N)=O)NC(=O)[C@H](Cc2ccc(C(N)=O)cc2)NC(=O)[C@@H]2Cc3ccccc3CN2C(=O)[C@@H]2CCCN2C(=O)[C@H](CCCCN)NC1=O ({CH2CO}-F[Pro(cis-4-CF3)]LKP[Tic][Phe(4-CONH2)]C-NH2; thioether N-8)
